Assay results as given in PubChem BioAssay AID250 (DTP/NCI, 2004).
Where “and” joins values, the source holds several entries; their conditions need not be identical. Equal values may be shown once. Toxic doses and inconclusive results are not listed.

Tested on: BDF1 mice, L1210 leukemia sc, survival T/C
Assay: NCI In Vivo Anticancer Drug Screen. Data for tumor model L1210 Leukemia (subcutaneous) in B6D2F1 (BDF1) mice
Conditions: higher = longer survival
Outline: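 Antitumor activity is assessed in mice with transplanted tumors by comparing the treated group (T) with the vehicle control group (C).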

Structure (SMILES): S=c1nc[nH]c2nc[nH]c12
- T/C (endpoint: mean survival time, dose: 60.0 mg/kg/injection, schedule: Q01DX001 (ip), vehicle: saline): 106 % of control
- T/C (endpoint: mean survival time, dose: 90.0 mg/kg/injection, schedule: Q01DX001 (ip), vehicle: saline): 110 % of control
- T/C (endpoint: mean survival time, dose: 120.0 mg/kg/injection, schedule: Q01DX001 (ip), vehicle: saline): 110 % of control
- T/C (endpoint: mean survival time, dose: 240.0 mg/kg/injection, schedule: Q01DX001 (ip), vehicle: saline): 116 % of control
- T/C (endpoint: median survival time, dose: 0.65 mg/kg/injection, schedule: Q02DX Z (sc), vehicle: other): 116 % of control
- T/C (endpoint: median survival time, dose: 5.0 mg/kg/injection, schedule: Q01DX009 (sc), vehicle: other): 109 % of control
- T/C (endpoint: median survival time, dose: 5.0 mg/kg/injection, schedule: Q## X Z (sc), vehicle: other): 105 % of control
- T/C (endpoint: median survival time, dose: 10.0 mg/kg/injection, schedule: Q01DX009 (sc), vehicle: other): 113 % of control
- T/C (endpoint: median survival time, dose: 10.0 mg/kg/injection, schedule: Q01DX Z (sc), vehicle: methylcellulose (MC)): 105 % of control
- T/C (endpoint: median survival time, dose: 12.5 mg/kg/injection, schedule: Q01DX012 (ip), vehicle: other): 122 % of control
- T/C (endpoint: median survival time, dose: 14.0 mg/kg/injection, schedule: Q01DX Z (ip), vehicle: other): 100 % of control
- T/C (endpoint: median survival time, dose: 14.0 mg/kg/injection, schedule: Q01DX Z (oral), vehicle: methylcellulose (MC)): 100 % of control and 104 % of control
- T/C (endpoint: median survival time, dose: 14.0 mg/kg/injection, schedule: Q01DX Z (sc), vehicle: other): 100 % of control (2×) and 110 % of control
- T/C (endpoint: median survival time, dose: 14.0 mg/kg/injection, schedule: Q#A X Z (sc), vehicle: other): 105 % of control and 115 % of control
- T/C (endpoint: median survival time, dose: 17.0 mg/kg/injection, schedule: Q01DX Z (oral), vehicle: methylcellulose (MC)): 95 % of control
- T/C (endpoint: median survival time, dose: 17.0 mg/kg/injection, schedule: Q01DX Z (sc), vehicle: methylcellulose (MC)): 100 % of control and 110 % of control
- T/C (endpoint: median survival time, dose: 20.0 mg/kg/injection, schedule: Q01DX009 (sc), vehicle: other): 124 % of control
- T/C (endpoint: median survival time, dose: 23.0 mg/kg/injection, schedule: Q01DX Z (ip), vehicle: other): 100 % of control
- T/C (endpoint: median survival time, dose: 23.0 mg/kg/injection, schedule: Q01DX Z (oral), vehicle: methylcellulose (MC)): 100 % of control
- T/C (endpoint: median survival time, dose: 23.0 mg/kg/injection, schedule: Q01DX Z (sc), vehicle: methylcellulose (MC)): 109 % of control
- T/C (endpoint: median survival time, dose: 23.0 mg/kg/injection, schedule: Q02DX Z (sc), vehicle: other): 94 % of control
- T/C (endpoint: median survival time, dose: 23.0 mg/kg/injection, schedule: Q#A X Z (sc), vehicle: other): 105 % of control
- T/C (endpoint: median survival time, dose: 28.0 mg/kg/injection, schedule: Q01DX Z (oral), vehicle: methylcellulose (MC)): 100 % of control
- T/C (endpoint: median survival time, dose: 28.0 mg/kg/injection, schedule: Q01DX Z (sc), vehicle: methylcellulose (MC)): 109 % of control
- T/C (endpoint: median survival time, dose: 28.0 mg/kg/injection, schedule: Q01DX Z (sc), vehicle: other): 110 % of control
- T/C (endpoint: median survival time, dose: 38.9 mg/kg/injection, schedule: Q01DX Z (sc), vehicle: methylcellulose (MC)): 150 % of control
- T/C (endpoint: median survival time, dose: 38.9 mg/kg/injection, schedule: Q01DX Z (sc), vehicle: other): 100 % of control and 105 % of control
- T/C (endpoint: median survival time, dose: 39.0 mg/kg/injection, schedule: Q01DX001 (sc), vehicle: other): 105 % of control
- T/C (endpoint: median survival time, dose: 39.0 mg/kg/injection, schedule: Q01DX Z (ip), vehicle: other): 110 % of control
- T/C (endpoint: median survival time, dose: 39.0 mg/kg/injection, schedule: Q01DX Z (oral), vehicle: methylcellulose (MC)): 104 % of control
- T/C (endpoint: median survival time, dose: 39.0 mg/kg/injection, schedule: Q02DX Z (sc), vehicle: other): 105 % of control
- T/C (endpoint: median survival time, dose: 39.0 mg/kg/injection, schedule: Q07DX Z (sc), vehicle: other): 105 % of control
- T/C (endpoint: median survival time, dose: 39.0 mg/kg/injection, schedule: Q## X Z (sc), vehicle: other): 100 % of control
- T/C (endpoint: median survival time, dose: 39.0 mg/kg/injection, schedule: Q#A X Z (sc), vehicle: other): 110 % of control
- T/C (endpoint: median survival time, dose: 47.0 mg/kg/injection, schedule: Q01DX Z (oral), vehicle: methylcellulose (MC)): 104 % of control
- T/C (endpoint: median survival time, dose: 47.0 mg/kg/injection, schedule: Q01DX Z (sc), vehicle: other): 110 % of control
- T/C (endpoint: median survival time, dose: 50.0 mg/kg/injection, schedule: Q01DX012 (ip), vehicle: other): 155 % of control
- T/C (endpoint: median survival time, dose: 60.0 mg/kg/injection, schedule: Q01DX001 (ip), vehicle: saline): 100 % of control
- T/C (endpoint: median survival time, dose: 64.8 mg/kg/injection, schedule: Q01DX Z (sc), vehicle: other): 150 % of control
- T/C (endpoint: median survival time, dose: 65.0 mg/kg/injection, schedule: Q01DX001 (sc), vehicle: other): 105 % of control and 115 % of control
- T/C (endpoint: median survival time, dose: 65.0 mg/kg/injection, schedule: Q01DX Z (oral), vehicle: methylcellulose (MC)): 104 % of control and 115 % of control
- T/C (endpoint: median survival time, dose: 65.0 mg/kg/injection, schedule: Q01DX Z (sc), vehicle: methylcellulose (MC)): 154 % of control
- T/C (endpoint: median survival time, dose: 65.0 mg/kg/injection, schedule: Q02DX Z (sc), vehicle: other): 105 % of control and 115 % of control
- T/C (endpoint: median survival time, dose: 65.0 mg/kg/injection, schedule: Q07DX Z (sc), vehicle: other): 105 % of control and 115 % of control
- T/C (endpoint: median survival time, dose: 65.0 mg/kg/injection, schedule: Q## X Z (sc), vehicle: other): 100 % of control
- T/C (endpoint: median survival time, dose: 78.0 mg/kg/injection, schedule: Q01DX Z (oral), vehicle: methylcellulose (MC)): 113 % of control
- T/C (endpoint: median survival time, dose: 78.0 mg/kg/injection, schedule: Q01DX Z (sc), vehicle: other): 155 % of control
- T/C (endpoint: median survival time, dose: 80.0 mg/kg/injection, schedule: Q01DX009 (ip), vehicle: other): 150 % of control
- T/C (endpoint: median survival time, dose: 80.0 mg/kg/injection, schedule: Q01DX009 (sc), vehicle: other): 155 % of control
- T/C (endpoint: median survival time, dose: 90.0 mg/kg/injection, schedule: Q01DX001 (ip), vehicle: saline): 110 % of control
- T/C (endpoint: median survival time, dose: 108.0 mg/kg/injection, schedule: Q01DX001 (sc), vehicle: other): 115 % of control
- T/C (endpoint: median survival time, dose: 108.0 mg/kg/injection, schedule: Q01DX Z (ip), vehicle: other): 155 % of control
- T/C (endpoint: median survival time, dose: 108.0 mg/kg/injection, schedule: Q01DX Z (oral), vehicle: methylcellulose (MC)): 105 % of control and 118 % of control
- T/C (endpoint: median survival time, dose: 108.0 mg/kg/injection, schedule: Q02DX Z (sc), vehicle: other): 152 % of control
- T/C (endpoint: median survival time, dose: 108.0 mg/kg/injection, schedule: Q07DX Z (sc), vehicle: other): 115 % of control
- T/C (endpoint: median survival time, dose: 108.0 mg/kg/injection, schedule: Q## X Z (sc), vehicle: other): 115 % of control
- T/C (endpoint: median survival time, dose: 120.0 mg/kg/injection, schedule: Q01DX001 (ip), vehicle: saline): 110 % of control
- T/C (endpoint: median survival time, dose: 130.0 mg/kg/injection, schedule: Q01DX Z (sc), vehicle: methylcellulose (MC)): 109 % of control
- T/C (endpoint: median survival time, dose: 130.0 mg/kg/injection, schedule: Q01DX Z (sc), vehicle: other): 150 % of control
- T/C (endpoint: median survival time, dose: 160.0 mg/kg/injection, schedule: Q01DX009 (sc), vehicle: other): 102 % of control
- T/C (endpoint: median survival time, dose: 180.0 mg/kg/injection, schedule: Q01DX001 (sc), vehicle: other): 121 % of control
- T/C (endpoint: median survival time, dose: 180.0 mg/kg/injection, schedule: Q01DX Z (oral), vehicle: methylcellulose (MC)): 150 % of control
- T/C (endpoint: median survival time, dose: 180.0 mg/kg/injection, schedule: Q07DX Z (sc), vehicle: other): 121 % of control
- T/C (endpoint: median survival time, dose: 200.0 mg/kg/injection, schedule: Q01DX012 (ip), vehicle: other): 100 % of control
- T/C (endpoint: median survival time, dose: 216.0 mg/kg/injection, schedule: Q01DX Z (oral), vehicle: methylcellulose (MC)): 109 % of control
- T/C (endpoint: median survival time, dose: 216.0 mg/kg/injection, schedule: Q01DX Z (sc), vehicle: methylcellulose (MC)): 109 % of control
- T/C (endpoint: median survival time, dose: 216.0 mg/kg/injection, schedule: Q01DX Z (sc), vehicle: other): 150 % of control
- T/C (endpoint: median survival time, dose: 240.0 mg/kg/injection, schedule: Q01DX001 (ip), vehicle: saline): 110 % of control
- T/C (endpoint: median survival time, dose: 300.0 mg/kg/injection, schedule: Q01DX Z (oral), vehicle: methylcellulose (MC)): 150 % of control and 154 % of control
- T/C (endpoint: median survival time, dose: 300.0 mg/kg/injection, schedule: Q01DX Z (sc), vehicle: methylcellulose (MC)): 120 % of control
- T/C (endpoint: median survival time, dose: 300.0 mg/kg/injection, schedule: Q07DX Z (sc), vehicle: other): 121 % of control
- T/C (endpoint: median survival time, dose: 300.0 mg/kg/injection, schedule: Q## X Z (sc), vehicle: other): 157 % of control
- T/C (endpoint: median survival time, dose: 360.0 mg/kg/injection, schedule: Q01DX Z (oral), vehicle: methylcellulose (MC)): 122 % of control
- T/C (endpoint: median survival time, dose: 500.0 mg/kg/injection, schedule: Q01DX Z (oral), vehicle: other): 120 % of control
